target: T1, androgen receptor (AR-LBD) (Rattus norvegicus, UniProt P15207); test: Evaluation of androgen receptor affinity (PolarScreen Androgen Receptor Competitor Assay Kit, Red; fluorescence polarization); conditions: 22° C. for 5 hours, relative to binding rate of 1 μM DHT, read-out: AR affinity (pEC50) (converted)
T1 construct: 5 μL of 2×AR-LBD/Fluoromone AL Red Complex contained in the kit; purchased Invitrogen
T1 sequence (P15207 651-882 limits assumed): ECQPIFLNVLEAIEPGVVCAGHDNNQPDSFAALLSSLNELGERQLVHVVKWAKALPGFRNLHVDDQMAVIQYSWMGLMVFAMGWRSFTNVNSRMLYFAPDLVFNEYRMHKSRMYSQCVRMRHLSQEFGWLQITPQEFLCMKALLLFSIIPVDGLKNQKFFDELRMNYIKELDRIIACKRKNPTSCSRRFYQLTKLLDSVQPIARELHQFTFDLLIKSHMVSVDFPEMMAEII
How it was run: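 Fluorescence polarization read-out after 5 h at 22° C of compound with a red-fluorophore-labelled AR-LBD complex. Displacement is scaled against 1 μM DHT, and the log reciprocal of the concentration reaching half that effect gives pEC50 via four-parameter curve fitting.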

SMILES	EC50
Cc1sc(N(Cc2ccccc2CO)c2ccc(C#N)cc2)nc1C(=O)NS(C)(=O)=O [Compound 355, 2-[4-cyano-N-[[2-(hydroxymethyl)phenyl]methyl]anilino]-5-methyl-N-methylsulfonyl-thiazole-4-carboxamide]	501 nM
Cc1sc(N(CC(=O)NC2CC2)c2ccc(C#N)cc2)nc1C(=O)NS(C)(=O)=O [Compound 412, 2-(4-cyano-N-[2-(cyclopropylamino)-2-oxo-ethyl]anilino)-5-methyl-N-methylsulfonyl-thiazole-4-carboxamide]	> 2000 nM
CCC(c1ccccc1)N(c1ccc(C#N)cc1)c1nc(C(=O)NS(C)(=O)=O)c(C)s1 (stereo not shown) [Compound 84, 2-[4-cyano-N-(1-phenylpropyl)anilino]-5-methyl-N-methylsulfonyl-thiazole-4-carboxamide]	> 2000 nM
Cc1noc(C)c1CN(CCc1ccc(Cl)cc1)c1nc(C(=O)NS(C)(=O)=O)c(C)s1 [Compound 151, 2-[2-(4-chlorophenyl)ethyl-[(3,5-dimethylisoxazol-4-yl)methyl]amino]-5-methyl-N-methylsulfonyl-thiazole-4-carboxamide]	> 2000 nM
Cc1sc(N(CCn2ccnc2)c2ccc(C#N)cc2)nc1C(=O)NS(C)(=O)=O [Compound 458, 2-[4-cyano-N-(2-imidazol-1-ylethyl)anilino]-5-methyl-N-methylsulfonyl-thiazole-4-carboxamide]	> 2000 nM
COc1cccc(CN(c2ccc(C#N)cc2)c2nc(C(=O)NS(C)(=O)=O)c(Cl)s2)c1 [Example 260, 5-chloro-2-[4-cyano-N-[(3-methoxyphenyl)methyl]anilino]-N-methylsulfonyl-thiazole-4-carboxamide]	39.8 nM
CNC(=O)COc1ccc(CN(c2ccc(C#N)cc2)c2nc(C(=O)NS(C)(=O)=O)c(C)s2)cc1 [Compound 574, 2-[4-cyano-N-[[4-[2-(methylamino)-2-oxo-ethoxy]phenyl]methyl]anilino]-5-methyl-N-methylsulfonyl-thiazole-4-carboxamide]	> 2000 nM
Cc1sc(N(CC2CCC(N(C)C)CC2)c2ccc(C#N)cc2)nc1C(=O)NS(C)(=O)=O (stereo not shown) [Compound 352, 2-[4-cyano-N-[[4-(dimethylamino)cyclohexyl]methyl]anilino]-5-methyl-N-methylsulfonyl-thiazole-4-carboxamide]	> 2000 nM
Cc1sc(N(CCc2cccc(N(C)C)c2)c2ccc(C#N)cc2)nc1C(=O)NS(C)(=O)=O [Compound 475, 2-[4-cyano-N-[2-[3-(dimethylamino)phenyl]ethyl]anilino]-5-methyl-N-methylsulfonyl-thiazole-4-carboxamide]	794 nM
Cc1sc(N(CC2CCCC2O)c2ccc(C#N)cc2)nc1C(=O)NS(C)(=O)=O (stereo not shown) [Compound 405, 2-[4-cyano-N-[(2-hydroxycyclopentyl)methyl]anilino]-5-methyl-N-methylsulfonyl-thiazole-4-carboxamide]	> 2000 nM
Cc1sc(N(CC2CCOCC2)c2ccc(C#N)cc2)nc1C(=O)NS(C)(=O)=O [Compound 346, 2-[4-cyano-N-(tetrahydropyran-4-ylmethyl)anilino]-5-methyl-N-methylsulfonyl-thiazole-4-carboxamide]	> 2000 nM
Cc1sc(N(Cc2ccccc2)c2ccc(C#N)cc2)nc1C(=O)NS(=O)(=O)/C=C/c1ccccc1 [Compound 385, 2-(N-benzyl-4-cyano-anilino)-5-methyl-N-[(E)-styryl]sulfonyl-thiazole-4-carboxamide]	794 nM
Cc1sc(N(CCc2cccc3ccccc23)c2ccc(C#N)cc2)nc1C(=O)NS(C)(=O)=O [Compound 441, 2-[4-cyano-N-[2-(1-naphthyl)ethyl]anilino]-5-methyl-N-methylsulfonyl-thiazole-4-carboxamide]	251 nM
Cc1sc(N(CCc2ccc(N(C)C)cc2)c2ccc(C#N)cc2)nc1C(=O)NS(C)(=O)=O [Compound 480, 2-[4-cyano-N-[2-[4-(dimethylamino)phenyl]ethyl]anilino]-5-methyl-N-methylsulfonyl-thiazole-4-carboxamide]	> 2000 nM
Cc1sc(N(CC[C@@H]2CC[C@@H](F)C2)c2ccc(C#N)cc2)nc1C(=O)NS(C)(=O)=O (racemic) [Compound 453, 2-[4-cyano-N-[2-[trans-3-fluorocyclopentyl]ethyl]anilino]-5-methyl-N-methylsulfonyl-thiazole-4-carboxamide]	251 nM
Cc1sc(N(C[C@H]2CCC[C@@H](CO)C2)c2ccc(C(F)(F)F)cc2)nc1C(=O)NS(C)(=O)=O (racemic) [Compound 348, 2-[N-[[cis-3-(hydroxymethyl)cyclohexyl]methyl]-4-(trifluoromethyl)anilino]-5-methyl-N-methylsulfonyl-thiazole-4-carboxamide]	1260 nM
Cc1sc(N(CC2CCC(=O)CC2)c2ccc(C#N)cc2)nc1C(=O)NS(C)(=O)=O [Compound 350, 2-[4-cyano-N-[(4-oxocyclohexyl)methyl]anilino]-5-methyl-N-methylsulfonyl-thiazole-4-carboxamide]	> 2000 nM
Cc1sc(N(CCc2ccc(Cl)cc2)CC2CCCCC2)nc1C(=O)NS(=O)(=O)C(F)(F)F [Compound 700, 2-[2-(4-chlorophenyl)ethyl-(cyclohexylmethyl)amino]-5-methyl-N-(trifluoromethylsulfonyl)thiazole-4-carboxamide]	> 2000 nM

The remaining lines, values ahead:

EC50	SMILES
> 2000 nM	Cc1nc(CCN(Cc2ccccc2)c2nc(C(=O)NS(C)(=O)=O)c(C)s2)cs1 [Compound 706, 2-[benzyl-[2-(2-methylthiazol-4-yl)ethyl]amino]-5-methyl-N-methylsulfonyl-thiazole-4-carboxamide]
> 2000 nM	Cc1sc(N(Cc2ccccc2)Cc2cccc(C#N)c2)nc1C(=O)NS(C)(=O)=O [Example 290, 2-[benzyl-[(3-cyanophenyl)methyl]amino]-5-methyl-N-methylsulfonyl-thiazole-4-carboxamide]
> 2000 nM	Cc1sc(N(c2ccc(C#N)cc2F)[C@@H](CO)Cc2ccccc2)nc1C(=O)NS(C)(=O)=O [Example 287, 2-(N-[(1R)-1-benzyl-2-hydroxy-ethyl]-4-cyano-2-fluoro-anilino)-5-methyl-N-methylsulfonyl-thiazole-4-carboxamide]
> 2000 nM	Cc1sc(N(Cc2ccccc2)Cc2ccccn2)nc1C(=O)NS(C)(=O)=O [Example 295, 2-[benzyl(2-pyridylmethyl)amino]-5-methyl-N-methylsulfonyl-thiazole-4-carboxamide]
> 2000 nM	Cc1sc(N(Cc2ccccc2)c2cnccn2)nc1C(=O)NS(C)(=O)=O [Compound 55, 2-[benzyl(pyrazin-2-yl)amino]-5-methyl-N-methylsulfonyl-thiazole-4-carboxamide]
> 2000 nM	Cc1sc(N(Cc2ccccc2)c2ccccc2CO)nc1C(=O)NS(C)(=O)=O [Compound 606, 2-[N-benzyl-2-(hydroxymethyl)anilino]-5-methyl-N-methylsulfonyl-thiazole-4-carboxamide]
> 2000 nM	Cc1sc(N(CCc2cccc(S(C)(=O)=O)c2)Cc2ccccc2)nc1C(=O)NS(C)(=O)=O [Compound 331, 2-[benzyl-[2-(3-methylsulfonylphenyl)ethyl]amino]-5-methyl-N-methylsulfonyl-thiazole-4-carboxamide]
> 2000 nM	Cc1sc(N(Cc2ccccc2)c2cccc(F)c2)nc1C(=O)NS(C)(=O)=O [Compound 29, 2-(N-benzyl-3-fluoro-anilino)-5-methyl-N-methylsulfonyl-thiazole-4-carboxamide]
> 2000 nM	Cc1sc(N(Cc2ccccc2)c2cccc(Cl)c2)nc1C(=O)NS(C)(=O)=O [Compound 32, 2-(N-benzyl-3-chloro-anilino)-5-methyl-N-methylsulfonyl-thiazole-4-carboxamide]
> 2000 nM	Cc1sc(N(CCc2ccc(C(=O)O)cc2)Cc2ccccc2)nc1C(=O)NS(C)(=O)=O [Compound 328, 4-[2-[benzyl-[5-methyl-4-(methylsulfonylcarbamoyl)thiazol-2-yl]amino]ethyl]benzoic acid]
> 2000 nM	Cc1sc(N(Cc2ccccc2)c2ccc(C#N)cc2)nc1C(=O)NS(=O)(=O)c1cn(C)cn1 [Compound 394, 2-(N-benzyl-4-cyano-anilino)-5-methyl-N-(1-methylimidazol-4-yl)sulfonyl-thiazole-4-carboxamide]
> 2000 nM	Cc1sc(N(CC(=O)c2ccccc2)c2ccc(C#N)cc2)nc1C(=O)NS(C)(=O)=O [Compound 434, 2-(4-cyano-N-phenacyl-anilino)-5-methyl-N-methylsulfonyl-thiazole-4-carboxamide]
1580 nM	COc1ccc(N(Cc2ccccc2)c2nc(C(=O)NS(C)(=O)=O)c(C)s2)cc1 [Compound 21, 2-(N-benzyl-4-methoxy-anilino)-5-methyl-N-methylsulfonyl-thiazole-4-carboxamide]
501 nM	Cc1sc(N(CCc2ccc(S(C)(=O)=O)cc2)Cc2ccccc2)nc1C(=O)NS(C)(=O)=O [Example 317, 2-[benzyl-[2-(4-methylsulfonylphenyl)ethyl]amino]-5-methyl-N-methylsulfonyl-thiazole-4-carboxamide]
1260 nM	Cc1sc(N(Cc2ccccc2)c2ccncc2)nc1C(=O)NS(C)(=O)=O [Compound 422, 2-[benzyl(4-pyridyl)amino]-5-methyl-N-methylsulfonyl-thiazole-4-carboxamide]
> 2000 nM	Cc1sc(N(CCc2ccccn2)Cc2ccccc2)nc1C(=O)NS(C)(=O)=O [Compound 334, 2-[benzyl-[2-(2-pyridyl)ethyl]amino]-5-methyl-N-methylsulfonyl-thiazole-4-carboxamide]
